# Several values for one entry are separate records, joined by “and”; a condition that tells them apart may be missing. Identical values can stand only once. Entries after “also recorded” stand apart in the source; their conditions may differ.
# How the values were obtained:
# patients = assay: Toxicity in patients treated earlier with GM2 or GM2-KLH vaccines; format: in vivo, human
# melanoma patients [1] = assay: Delayed-type hypersensitivity skin tests with GM2, GM2-HSA and KLH; format: in vivo, human; conditions: 25 micrograms intradermally at the fifth vaccination; 24 and 48 hours
# Protocol: (§1) Enzyme-linked Immunosorbent Assay (ELISA) were performed as previously described for gangliosides (5). […] The titer was defined as the highest dilution yielding a corrected absorbance of 0.1 or greater. Immunostaining of gangliosides with monoclonal antibodies or human sera was performed after spotting on nitrocellulose strips as previously described (22). […] Twenty-five micrograms of each were diluted in 0.05 ml PBS and administered intradermally. Results were interpreted as described previously (5).
# ganglioside GM2 = assay: Peak antibody titer against ganglioside GM2 by ELISA (Table 2); format: in vivo, human; conditions: peak titer against GM2 after immunization
# KLH [2] = assay: IgG ELISA titer against KLH (fourth series); format: in vivo, human; conditions: No adjuvant
# Protocol: as §1
# melanoma patients [3] = conditions: six patients per group
# GM2 [4] = assay: ELISA titer against GM2 (fourth series); format: in vivo, human
# Protocol: as §1
# GM2 [5] = assay: ELISA for GM2 antibodies in patients receiving GM2-KLH conjugate vaccines (third series); format: in vivo, human
# Protocol: Four vaccinations were administered intradermally into extremities with intact lymphatic drainage at two-week intervals, followed by two additional vaccinations at eight week intervals. Cyclophosphamide (Cytoxan, Mead Johnson and Co., Evansville, Ind.) 200 mg/m2 was administered intravenously to all patients 4 to 6 days prior to the first vaccination.
# (§2) ELISA was performed as previously described (6). To control for nonspecific “stickiness”, immune sera were also tested on plates which were processed identically but to which no ganglioside had been added, and the reading was subtracted from the value obtained in the presence of ganglioside. The titer was defined as the highest dilution yielding a corrected absorbance of 0.1 or greater. Immunostaining of gangliosides with monoclonal antibodies or human sera was performed after spotting on nitrocellulose strips (14) or separation on HPTLC silica gel glass plates as previously described (3). Plates were developed in chloroform/methanol/water (0.25% CaCl2) 50:40:10 (v/v), and gangliosides were visualized by staining with resorcinol/HCl reagent or monoclonal antibodies.
# GM2 [6] = assay: Dot blot immune stain for GM2 antibodies (third series); format: in vivo, human
# Protocol: as §2
# GM2 [7] = assay: Dot blot immune stain against GM2 (fourth series); format: in vivo, human; set-up: key: Reactions were graded 0, 1+, 2+ or 3+; Reactions were graded 0, 1+, 2+ or 3+; Reactions were graded 0, 1+, 2+ or 3+; Reactions were graded 0, 1+, 2+ or 3+
# Protocol: as §1
# KLH [8] = assay: ELISA for KLH antibodies (third series); format: in vivo, human
# [9] = system: mouse, cat and Rhesus monkey; conditions: doses as high as 125 ug per mouse; cited from earlier work
# T antigen-KLH = assay: Preclinical adjuvant studies with KLH-conjugate vaccines such as T antigen-KLH; format: in vivo, mice
# melanoma patients [10] = conditions: outpatient setting, s.c. with GM2-KLH
# Protocol: Melanoma patients with AJCC Stage III or IV disease were considered eligible if all evidence of metastatic disease had been rejected within the last 8 months. None of the patients had received prior chemotherapy or radiation therapy. Patients were evaluated for toxicity at the time of each vaccination. In addition, patients were instructed to measure local reactions and to take their temperature.
# The GM2/KLH solar ratio was approximately 800/1 and was supplied at a concentration of 0.57 mg conjugate per 0.5 ml normal saline. This represented one patient dose and contained 70 ug GM2, 500 ug KLH and 0.5 ml normal saline. QS-21 adjuvant, containing a saponin component isolated from Quillaja saponaria Molina tree bark, was provided by Cambridge Biotech Corp. (Worcester, Mass.). The purity of the QS-21 was determined to be ≧98% by analytical reverse phase HPLC. […] The vaccine (final volume 0.75 ml) was vortexed for 2–3 minutes and administered within 15 min. Four vaccinations were administered subcutaneously at two week intervals followed by two more at eight week intervals. Initially 12 patients were treated, 3 at each of the 4 QS-21 doses. […] Cyclophosphamide (Cytoxan, Mead Johnson and Co., Evansville, Id.) 200 mg/M^2 was administered IV to all patients 3–6 days prior to the first vaccination.
# QS-21 = assay: ELISA for antibodies to QS-21; format: in vivo, human; conditions: after immunizations
# Protocol: as §1
substance,measurement,setting,value
"II^3NeuAc-GgOse3Cer [GM2, reference compound]",toxicity attributed to the substance,patients,No toxicity
same,reaction at skin test sites,melanoma patients [1],No erythema or induration
11^3NeuAc-GgOse3Cer-keyhole limpet hemocyanin (KLH) [GM2-KLH],Antibody Titers by Elisa IgG,ganglioside GM2,0
same,IgG ELISA TITER AGAINST KLH Pretreatment,KLH [2],0 (6)
same,local or systemic side effects,melanoma patients [3],No local or systemic toxicity
same,Reciprocal median IgM antibody titer against GM2,GM2 [4]; GM2-KLH alone,80
same,median IgG antibody titer against GM2,GM2 [4]; GM2-KLH alone,0
same,patients who produced IgM antibody,GM2 [4]; GM2-KLH alone,Five of 6
same,patients who produced IgG antibody (of low titer),"GM2 [4]; GM2-KLH alone, 6 patients",1
same,PEAK ELISA TITER AGAINST GM2 Pretreatment IgG,GM2 [4]; No adjuvant,0 (6)
same,"induction of IgM and IgG antibody titers, 7 μg GM2 dose versus 70 μg dose","GM2 [4]; patients with advanced disease, 100 μg QS-21",equally as effective
same,Reciprocal GM2 antibody titers before immunization IgG,GM2 [5]; before immunization,0
same,median titers: reciprocal GM2 antibody titer after immunization (Peak) IgG,"GM2 [5]; median, after immunization",0
same,median titers: reciprocal GM2 antibody titer after immunization (Peak) IgM,"GM2 [5]; median, after immunization",80
same,median titers: reciprocal GM2 antibody titer before immunization IgG,"GM2 [5]; median, before immunization",0
same,median titers: reciprocal GM2 antibody titer before immunization IgM,"GM2 [5]; median, before immunization",0
same,toxicity attributed to the substance,patients,pain and tenderness at vaccines sites lasting 48 hours
same,patients with 3+ reactivity of IgM antibodies against GM2,GM2 [6],two of six
same,median IgM dot blot reaction against GM2,GM2 [7]; GM2-KLH alone,2+
same,PEAK DOT BLOT IMMUNE SYSTEM RESPONSE AGAINST GM2 IgG,GM2 [7]; No adjuvant,0 and 1+
same,PEAK DOT BLOT IMMUNE SYSTEM RESPONSE AGAINST GM2 IgM,GM2 [7]; No adjuvant,"2+ and 1+, and 0 and 3+,"
same,median IgG dot blot reaction against GM2,GM2 [7]; no QS-21,0
same,median titers: reciprocal KLH antibody titer after immunization (Peak) IgG,KLH [8],120
QS-21,toxicity,[9],no clear toxicity
same,DTH,T antigen-KLH; mice,potent DTH
same,IgG antibody titers,"T antigen-KLH; most mice, KLH-conjugate vaccine with QS-21",over 1/4000
same,probable MTD per vaccination,melanoma patients [10],200 µg
same,antibodies against QS-21,QS-21,No antibodies against QS-21 were detected; also recorded: no significant increase in antibody to QS-21

# Source: patent US7014856B1, “Ganglioside-KLH conjugate vaccines plus OS-21” (Sloan-Kettering Institute for Cancer Research, priority 1993, dated 2006)
